From patent publication US12343326B2, “Psychoactive medicines and their use for treating psychiatric and neurological conditions and disorders” (Transcend Therapeutics, Inc., priority 2021, dated 2025)
Where two headings read alike, the source gives them in different places.

How the values were obtained:
5HT2A receptor = target: T1, 5HT2A receptor (Homo sapiens, UniProt P28223); experiment: GPCRmax screen, agonist mode; format: cell-based; details: 1 or 10 mM; threshold 30%
T1 construct: beta-galactosidase enzyme fragment (PathHunter complementation tag); host or cells: PathHunter cell lines

5HT2C receptor [1] = target: T2, 5HT2C receptor (Homo sapiens, UniProt P28335); experiment: GPCRmax screen, agonist mode; format: cell-based; details: 1 or 10 mM; threshold 30%
T2 construct: beta-galactosidase enzyme fragment (PathHunter complementation tag); host or cells: PathHunter cell lines

5HT2C receptor [2] = target: T2, 5HT2C receptor; experiment: GPCRmax screen, antagonist mode; format: cell-based; details: 1 or 10 mM; threshold 50%
[3] = system: gene expression in amygdala, frontal cortex, hippocampus; experiment: RNA-sequencing of brain areas after a single dose; format: in vivo, rat
[4] = system: myelin basic protein (MBP); experiment: Immunohistochemistry of myelin basic protein; format: in vivo, rat; details: 10 mg/kg IP, 24 h
Protocol: Immunohistochemistry: The in-life portion of the study was conducted at WuXi Apptec (Cranbury, NJ). Sectioning and staining of brains took place at Neuroscience Associates (NSA, Knoxville, TN). […] Brains were post-fixed in PFA before shipment to NSA for processing and staining. Hemisected brains were mounted, sectioned and stained using standard protocols with myelin-basic protein primary antibody (MBP SMI-99, 1:5000, Biolegend, San Diego, CA) and anti-mouse biotinylated secondary antibody (BA-2001, Vector Laboratories, Newark, CA). Slides were imaged using a Huron Digital Pathology TissueScope LE120 whole slide scanning system. 20× objective was used with a 0.4 μm/pixel resolution.

[5] = system: rats (Sprague Dawley; Flinders Sensitive Line); details: cited from earlier work
mice = details: MDMA 7.5 mg/kg 30 minutes prior to extinction training (Young et al. 2015); cited from earlier work
[6] = retrospective reports / meta-analysis of overdose deaths; cited from earlier work

T2 sequence (P28335 33-458): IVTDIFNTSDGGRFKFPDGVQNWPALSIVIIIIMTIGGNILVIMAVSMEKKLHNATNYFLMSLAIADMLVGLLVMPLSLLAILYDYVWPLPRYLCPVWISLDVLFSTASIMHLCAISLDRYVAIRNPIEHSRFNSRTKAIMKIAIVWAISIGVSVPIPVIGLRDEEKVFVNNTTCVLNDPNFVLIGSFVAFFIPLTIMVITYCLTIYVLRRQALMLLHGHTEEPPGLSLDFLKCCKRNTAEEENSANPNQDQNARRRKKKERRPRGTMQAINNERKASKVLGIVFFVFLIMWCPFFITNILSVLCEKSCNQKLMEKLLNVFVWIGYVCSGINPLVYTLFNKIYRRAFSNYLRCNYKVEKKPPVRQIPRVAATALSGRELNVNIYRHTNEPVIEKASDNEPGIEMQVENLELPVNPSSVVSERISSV
T1 sequence (P28223 whole entry, the tested form may be a part): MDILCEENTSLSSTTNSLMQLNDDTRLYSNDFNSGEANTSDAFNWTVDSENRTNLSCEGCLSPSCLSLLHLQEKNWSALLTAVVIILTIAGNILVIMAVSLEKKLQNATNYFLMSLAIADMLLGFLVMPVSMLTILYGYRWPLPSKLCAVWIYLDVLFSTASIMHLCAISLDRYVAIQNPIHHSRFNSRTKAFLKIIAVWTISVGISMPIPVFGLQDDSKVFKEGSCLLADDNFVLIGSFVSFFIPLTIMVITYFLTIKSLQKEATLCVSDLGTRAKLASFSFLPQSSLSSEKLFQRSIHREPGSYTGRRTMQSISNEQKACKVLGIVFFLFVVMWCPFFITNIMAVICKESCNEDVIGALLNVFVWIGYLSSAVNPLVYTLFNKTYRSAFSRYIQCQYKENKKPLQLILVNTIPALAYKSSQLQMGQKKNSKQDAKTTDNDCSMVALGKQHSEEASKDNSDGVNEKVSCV

For `CNC(C)Cc1ccc2c(c1)OCO2` (racemic) [MDMA, 3,4-Methylenedioxymethamphetamine], the agonist % activity (5HT2A receptor) was 27.5%, the agonist % activity (5HT2C receptor [1]) was 28.0% and the “antagonist activity (% inhibition)” value (5HT2C receptor [2]) was 52.2%. The “more genes regulated than methylone, frontal cortex” value ([3]; 10 mg/kg IP) was ~72%, the “genes regulated by MDMA that are also regulated by methylone, amygdala” value ([3]; 10 mg/kg IP each) was 7% and the “MBP expression, basolateral nucleus of the amygdala, vs. vehicle” value [4] was “significant reduction in MBP”. For the same molecule, the “MBP expression, central nucleus of the amygdala, vs. vehicle” value [4] was “significant reduction in MBP”, the “MBP expression, cortex (control region)” value [4] was “No change in MBP” and the “reduction in immobility (FST)” value ([5]; MDMA 5 mg/kg, Flinders Sensitive Line rats) was 45%. The “reduction in immobility (FST)” value ([5]; MDMA 5 mg/kg, Sprague Dawley rats (Majumder et al. 2011)) was 45%, the “reduction in immobility (FST)” value ([5]; MDMA 10 mg/kg, Flinders Sensitive Line rats) was 93% and the “reduction in immobility (FST)” value ([5]; MDMA 10 mg/kg, Sprague Dawley rats (Majumder et al. 2011)) was 78%. For the same molecule, the “reduced freezing vs. saline (extinction recall)” value (mice) was 35% and the “blood concentration in overdose deaths” value [6] was 478 to 53900 ng/mL.
